Experiments:
Assay type in all cases: in vivo, human
[1] = system: patients with amyotrophic lateral sclerosis; experiment: Example 1 clinical study: respiratory function (slow vital capacity); settings: Active group
Experimental: (§1) As a clinical study, double blind placebo-controlled parallel group study was carried out on patients with amyotrophic lateral sclerosis, under the following conditions.
(§2) (1) Active group: (2R)-2-propyloctanoic acid 1200 mg (four soft capsules comprising 300 mg of (2R)-2-propyloctanoic acid per capsule);
(§3) Both Active and Placebo groups are administered for 12 months.
(§4) Riluzole was administered to all subjects in Active and Placebo groups in the manner of standard therapy (riluzole 50 mg tablet: one tablet twice a day (before breakfast and dinner), oral daily dose of 100 mg).
(§5) Evaluation method: Slow vital capacity (SVC) of the subject was measured at the following evaluation times. SVC was measured three times in the sitting position, allowing sufficient recovery time between each manoeuvre. The highest SVC value was recorded.
Evaluation time: 1, 2, 4, 6, 8, 10 and 12 month(s) from the start of administration.
Suppression of respiratory disability and improvement in survival rate are shown by oral administration of (2R)-2-propyloctanoic acid in the patient within about 14 months after the onset of muscular weakness (Active group: 55 patients, Placebo group: 54 patients. Both Active and Placebo groups are treated with standard riluzole therapy). Hereinafter, each result is described in detail, […]

[2] = system: patients with amyotrophic lateral sclerosis; experiment: Example 1 clinical study: survival; settings: Active group, 1200 mg once a day oral for 12 months plus standard riluzole; patients within about 14 months after onset of muscular weakness
Experimental: As a clinical study, double blind placebo-controlled parallel group study was carried out on patients with amyotrophic lateral sclerosis, under the following conditions. […] (1) Active group: (2R)-2-propyloctanoic acid 1200 mg (four soft capsules comprising 300 mg of (2R)-2-propyloctanoic acid per capsule); Both Active and Placebo groups are administered for 12 months. Riluzole was administered to all subjects in Active and Placebo groups in the manner of standard therapy (riluzole 50 mg tablet: one tablet twice a day (before breakfast and dinner), oral daily dose of 100 mg). Evaluation method: Death was recorded for each subject, if and when it occurs. Evaluation time. Throughout the study. Suppression of respiratory disability and improvement in survival rate are shown by oral administration of (2R)-2-propyloctanoic acid in the patient within about 14 months after the onset of muscular weakness (Active group: 55 patients, Placebo group: 54 patients. Both Active and Placebo groups are treated with standard riluzole therapy). Hereinafter, each result is described in detail, […]

[3] = system: patients with amyotrophic lateral sclerosis; experiment: Example 1 clinical study: clinical adverse events; settings: Active group, 1200 mg once a day oral for 12 months plus standard riluzole
Experimental: as §1, §2, §3, §4
(§6) Evaluation method: Incidence and content (e.g., symptom, causal association, etc.) of clinical adverse events were monitored for each subject.
Evaluation time: Throughout the study.

[4] = system: patients with amyotrophic lateral sclerosis; experiment: Example 2 clinical study: efficacy measurements; settings: 1200 mg once a day oral for 18 months plus standard riluzole; patients less than 14 months from onset of muscular weakness
Experimental: as §1
(3) Less than 14 months from onset of muscular weakness;
as §2
(§7) Both Active and Placebo group are administered for 18 months.
(§8) Riluzole was administered to all subjects in Active and Placebo group in the manner of standard therapy (riluzole 50 mg tablet: one tablet twice a day (before breakfast and dinner), oral daily dose of 100 mg).
as §5
Evaluation method: Functional status of the subject was assessed at the following evaluation times using revised amyotrophic lateral sclerosis functional rating scale (ALSFRS-R) shown in above-mentioned Table 1 to 13.
Evaluation method; Muscle strength of the subject was assessed at the following evaluation times using medical research council scale shown in before-mentioned Table 14. […]
Evaluation method: Death, bronchotomy, and using noninvasive ventilator were recorded for each subject, if and when it occurs. […]

[5] = system: patients with amyotrophic lateral sclerosis; experiment: Example 2 clinical study: safety measurements; settings: 1200 mg once a day oral for 18 months plus standard riluzole
Experimental: as §1, §2, §7, §8
Evaluation method: Blood pressure and pulse of the subject were recorded at the following evaluation times.
Evaluation method: 12 lead ECG was conducted at the following evaluation times. Sinus rhythm, RR interval, PR interval, QRS duration, QT/QTc, and so forth were assessed.
Evaluation method: Weight of the subject was measured at the following evaluation times.
Evaluation method: Clinical laboratory test (haematology, biochemistry and urinalysis) of the subject was conducted at the following evaluation times.
as §6

ALS patients = experiment: Studies of the inventors: (2R)-2-propyloctanoic acid used alone in ALS patients; settings: without riluzole

CCCCCC[C@@H](CCC)C(=O)O [(2R)-2-propyloctanoic acid]
reduction of slow vital capacity (% of the predicted value) at 12 months from the start of administration compared to before-administration ([1]; 1200 mg once a day oral for 12 months plus standard riluzole 100 mg/day, patients within about 14 months after onset of muscular weakness (55 patients)): 38.27% | patients whose slow vital capacity was lowered to 50% or less of predicted in 12 months ([1]; 1200 mg once a day oral plus standard riluzole, patients within about 14 months after onset of muscular weakness, result of estimation): about 35 % of patients | mortality in the dosing period [2]: 9 of 55 | survival rate [2]: 84% | frequency of adverse event [3]: 89% | frequency of serious adverse event [3]: 49% | effectiveness on suppressing muscular weakness, suppressing respiratory disability, extending survival period, improvement in quality-of-life measures [4]: shows its effectiveness on at least one of | safety in ALS patient [5]: safe | effect on ALS patients when used alone (ALS patients): cannot exert any satisfactory effect
